According to the supplement of paper PMC10307832:

Key:
Experiment in all cases: relative viability (nuclei count vs DMSO), 5 days (fraction); higher = more cells survive
Dasatinib + Trametinib = compound: Cc1nc(Nc2ncc(C(=O)Nc3c(C)cccc3Cl)s2)cc(N2CCN(CCO)CC2)n1 [Dasatinib] + CC(=O)Nc1cccc(-n2c(=O)n(C3CC3)c(=O)c3c(Nc4ccc(I)cc4F)n(C)c(=O)c(C)c32)c1 [Trametinib] (partner 0.02 µM)
In short: (§1)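 Lung cancer cell lines were seeded in 1536-well plates and dosed by pin tool the next day, with either a single drug or a fixed anchor-drug dose combined with five library-drug doses (not always all listed) spaced in √10 steps. Five days later, one step fixed the cells and stained their nuclei (final 0.05% Triton X-100, 1% formaldehyde, 1 ug/ml Hoechst), and nuclei were counted on 4× images. Relative viability is the nuclei count in treated wells divided by the count in vehicle wells, and each value is the median of duplicate plates.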

ALW-II-49-7 + Olaparib = compound: Cc1ccc(C(=O)Nc2cccc(C(F)(F)F)c2)cc1Nc1cncc(C(N)=O)c1 [ALW-II-49-7] + O=C(c1cc(Cc2n[nH]c(=O)c3ccccc23)ccc1F)N1CCN(C(=O)C2CC2)CC1 [Olaparib] (partner 8 µM)
In short: as §1

XMD13-2 + Foretinib = compound: C1CC1C(=O)NC2=NNC3=C2C=CC(=C3)C4=CC(=CC=C4)C(=O)NC5CC5 [XMD13-2] + COc1cc2c(Oc3ccc(NC(=O)C4(C(=O)Nc5ccc(F)cc5)CC4)cc3F)ccnc2cc1OCCCN1CCOCC1 [Foretinib] (partner 0.25 µM)
In short: as §1

Dasatinib + Crizotinib = compound: Cc1nc(Nc2ncc(C(=O)Nc3c(C)cccc3Cl)s2)cc(N2CCN(CCO)CC2)n1 [Dasatinib] + C[C@@H](Oc1cc(-c2cnn(C3CCNCC3)c2)cnc1N)c1c(Cl)ccc(F)c1Cl [Crizotinib] (partner 1 µM)
In short: as §1

Cell Line | relative viability (Dasatinib + Trametinib; first compound 0.005 µM) | relative viability (Dasatinib + Trametinib; first compound 0.01581 µM) | relative viability (Dasatinib + Trametinib; first compound 0.05 µM) | relative viability (Dasatinib + Trametinib; first compound 0.1581 µM) | relative viability (Dasatinib + Trametinib; first compound 0.5 µM) | relative viability (ALW-II-49-7 + Olaparib; first compound 0.08 µM) | relative viability (ALW-II-49-7 + Olaparib; first compound 0.253 µM) | relative viability (ALW-II-49-7 + Olaparib; first compound 0.8 µM) | relative viability (ALW-II-49-7 + Olaparib; first compound 2.53 µM) | relative viability (ALW-II-49-7 + Olaparib; first compound 8 µM) | relative viability (XMD13-2 + Foretinib; first compound 0.05 µM) | relative viability (XMD13-2 + Foretinib; first compound 0.1581 µM) | relative viability (XMD13-2 + Foretinib; first compound 0.5 µM) | relative viability (XMD13-2 + Foretinib; first compound 1.581 µM) | relative viability (XMD13-2 + Foretinib; first compound 5 µM) | relative viability (Dasatinib + Crizotinib; first compound 0.005 µM) | relative viability (Dasatinib + Crizotinib; first compound 0.01581 µM) | relative viability (Dasatinib + Crizotinib; first compound 0.05 µM) | relative viability (Dasatinib + Crizotinib; first compound 0.1581 µM) | relative viability (Dasatinib + Crizotinib; first compound 0.5 µM)
201T | 0.695 | 0.64 | 0.708 | 0.575 | 0.44 | 0.846 | 0.844 | 0.844 | 0.873 | 0.69 | 1.28 | 1.09 | 1.12 | 1.15 | 1.16 | 0.972 | 0.947 | 0.933 | 0.729 | 0.458
A549 |  |  |  |  |  | 0.407 | 0.368 | 0.222 | 0.344 | 0.263 | 1.08 | 0.972 | 0.902 | 0.965 | 0.97 | 0.563 | 0.642 | 0.415 | 0.264 | 0.131
A-427 | 0.76 | 0.598 | 0.713 | 0.433 | 0.408 | 0.673 | 0.831 | 0.81 | 0.672 | 0.71 | 1.23 | 1.08 | 1.05 | 1.02 | 0.745 | 0.761 | 0.719 | 0.701 | 0.495 | 0.442
ABC-1 |  |  |  |  |  | 0.636 | 0.828 | 0.744 | 0.838 | 0.921 | 0.949 | 1.1 | 1.41 | 1.03 | 0.846 | 0.929 | 0.856 | 0.699 | 0.586 | 0.367
BEN | 0.891 | 0.614 | 0.8 | 0.528 | 0.511 | 1.12 | 1.11 | 1.18 | 0.548 | 0.98 | 0.802 | 0.829 | 0.654 | 0.53 | 0.737 | 0.706 | 0.397 | 0.493 | 0.378 | 0.332
CAL-12T | 0.331 | 0.324 | 0.343 | 0.198 | 0.138 | 0.797 | 0.644 | 0.773 | 0.753 | 0.719 | 1.22 | 1.07 | 1.09 | 1.11 | 1.01 | 0.86 | 0.627 | 0.457 | 0.128 | 0.0903
COR-L23 | 0.563 | 0.416 | 0.48 | 0.444 | 0.281 | 0.327 | 0.343 | 0.327 | 0.313 | 0.292 | 1.14 | 0.986 | 0.977 | 0.986 | 0.942 | 0.514 | 0.5 | 0.35 | 0.234 | 0.267
COR-L 105 | 0.445 | 0.358 | 0.389 | 0.336 | 0.253 | 0.646 | 0.626 | 0.781 | 0.663 | 0.578 | 1.16 | 1.19 | 0.729 | 0.883 | 0.899 | 0.71 | 0.59 | 0.528 | 0.286 | 0.285
Calu-6 |  |  |  |  |  | 0.588 | 0.521 | 0.576 | 0.45 | 0.417 | 0.954 | 0.906 | 0.89 | 0.909 | 0.772 | 0.701 | 0.618 | 0.519 | 0.341 | 0.344
ChaGo-K-1 | 0.89 | 0.855 | 0.95 | 0.777 | 0.6 | 0.384 | 0.427 | 0.394 | 0.411 | 0.39 | 0.883 | 0.885 | 0.944 | 0.882 | 0.932 | 1.14 | 1.02 | 1 | 0.862 | 0.734
EBC-1 |  |  |  |  |  | 0.724 | 0.794 | 0.676 | 0.646 | 0.688 | 0.0838 | 0.0911 | 0.109 | 0.124 | 0.0963 | 0.203 | 0.187 | 0.205 | 0.183 | 0.172
EKVX | 0.345 | 0.306 | 0.254 | 0.178 | 0.114 | 0.77 | 0.847 | 0.823 | 0.374 | 0.855 | 0.919 | 0.746 | 0.699 | 0.64 | 0.83 | 0.994 | 0.633 | 0.528 | 0.314 | 0.138
EMC-BAC-2 | 0.965 | 0.93 | 0.923 | 0.857 | 0.716 | 0.482 | 0.475 | 0.445 | 0.396 | 0.367 | 1.11 | 1.01 | 0.791 | 0.957 | 0.61 | 0.754 | 0.516 | 0.425 | 0.247 | 0.221
EPLC-272H | 0.312 | 0.267 | 0.307 | 0.222 | 0.141 | 0.609 | 0.468 | 0.506 | 0.711 | 0.64 | 0.71 | 0.629 | 0.644 | 0.568 | 0.187 | 0.99 | 0.765 | 0.787 | 0.537 | 0.326
H3255 | 0.667 | 0.489 | 0.587 | 0.431 | 0.297 | 0.516 | 0.549 | 0.492 | 0.537 | 0.477 | 0.886 | 0.891 | 0.893 | 0.696 | 0.984 | 0.901 | 0.757 | 0.617 | 0.557 | 0.27
HARA | 0.714 | 0.31 | 0.518 | 0.189 | 0.212 | 0.556 | 0.584 | 0.551 | 0.626 | 1.07 | 1.1 | 0.854 | 0.834 | 1.01 | 0.616 | 1.08 | 0.754 | 0.71 | 0.261 | 0.133
HCC-15 | 0.354 | 0.336 | 0.332 | 0.253 | 0.207 | 0.757 | 0.689 | 0.719 | 0.577 | 0.648 | 1.14 | 1 | 1.14 | 0.981 | 0.62 | 0.873 | 0.699 | 0.743 | 0.514 | 0.489
